The values below come from ChEMBL document CHEMBL1153306, “Relation between lipophilicity of alkyl gallates and antifungal activity against yeasts and filamentous fungi” (Bioorg Med Chem Lett, 2009).

Molecules are shown by their SMILES. Converted amounts (≈) assume the structure as drawn. Bounds are passed on as bounds.

The MIC is the lowest concentration found to suppress growth. Higher therefore signals weaker potency. The logP is a log measure of how a compound divides between an organic and an aqueous phase.

Data set [1] concerns Nannizzia gypsea. As to the kind of experiment: Antimicrobial activity against Microsporum gypseum after 48 hrs by broth microdilution technique. The format is functional. A general note: Dilution methods test growth across graded concentrations, often in twofold steps.
The nature of data set [2]: Lipophilicity, log P of the compound. The class given is physicochemical. The following applies: octanol/water.
Data set [3] relates to Aspergillus fumigatus. As to the kind of experiment: Antimicrobial activity against Aspergillus fumigatus after 48 hrs by broth microdilution technique. The format is functional.
For data set [4], the system named is Saccharomyces cerevisiae. As to the kind of experiment: Antifungal activity against Saccharomyces cerevisiae after 48 hrs by broth microdilution technique. The class given is functional.
In data set [5] the test system is Candida albicans. As to the kind of experiment: Antifungal activity against Candida albicans after 48 hrs by broth microdilution technique. The class given is functional.
The test system of data set [6] is Aspergillus flavus. As to the kind of experiment: Antimicrobial activity against Aspergillus flavus after 48 hrs by broth microdilution technique. The format is functional.
For data set [7], the system named is Trichophyton mentagrophytes. As to the kind of experiment: Antimicrobial activity against Trichophyton mentagrophytes after 48 hrs by broth microdilution technique. The format is functional.
In data set [8] the test system is Epidermophyton floccosum. As to the kind of experiment: Antimicrobial activity against Epidermophyton floccosum after 48 hrs by broth microdilution technique. The format is functional.
The test system of data set [9] is Trichophyton rubrum. As to the kind of experiment: Antimicrobial activity against Trichophyton rubrum after 48 hrs by broth microdilution technique. The format is functional.
The test system of data set [10] is Cryptococcus neoformans. As to the kind of experiment: Antifungal activity against Cryptococcus neoformans after 48 hrs by broth microdilution technique. The class given is functional.
In data set [11] the test system is Candida tropicalis. As to the kind of experiment: Antifungal activity against Candida tropicalis after 48 hrs by broth microdilution technique. The format is functional.
Data set [12] has as its system Aspergillus niger. As to the kind of experiment: Antimicrobial activity against Aspergillus niger after 48 hrs by broth microdilution technique. The format is functional.

Consider `CCCCCCCCCOC(=O)c1cc(O)c(O)c(O)c1` [NONYL GALLATE], for which the MIC in [1] was 8 µg/mL (≈ 27 µM); in data set [3] it was 62.5 µg/mL (≈ 211 µM); in [4] it was 8 µg/mL (≈ 27 µM); in data set [5], 8 µg/mL (≈ 27 µM); in data set [6], 62.5 µg/mL (≈ 211 µM); in data set [7], 8 µg/mL (≈ 27 µM). For the same compound, the MIC in data set [8] worked out at 25 µg/mL (≈ 84.4 µM); in [9] it was 8 µg/mL (≈ 27 µM); in data set [10], 8 µg/mL (≈ 27 µM); in [11] it was 8 µg/mL (≈ 27 µM); in data set [12], 125 µg/mL (≈ 422 µM). This compound returned a lipophilicity (logP) in data set [2] of 3.7.
As for `CCCCCCCCOC(=O)c1cc(O)c(O)c(O)c1` [OCTYL_GALLATE], the MIC in [1] worked out at 6.25 µg/mL (≈ 22.1 µM); in data set [3], 62.5 µg/mL (≈ 221 µM); in [4] it was 50 µg/mL (≈ 177 µM); in data set [5], 62.5 µg/mL (≈ 221 µM); in [6], 62.5 µg/mL (≈ 221 µM); in data set [7], 12.5 µg/mL (≈ 44.3 µM). For the same compound, the MIC in data set [8] is 6.25 µg/mL (≈ 22.1 µM); in data set [9], 6.25 µg/mL (≈ 22.1 µM); in data set [10], 50 µg/mL (≈ 177 µM); in data set [11], 62.5 µg/mL (≈ 221 µM); in data set [12], 62.5 µg/mL (≈ 221 µM). The same compound registered a logP in data set [2] of 3.7.
Consider `O=C(O)c1cc(O)c(O)c(O)c1` [GALLIC ACID], for which the minimum inhibitory concentration (MIC) in data set [1] is > 250 µg/mL; in data set [3], > 250 µg/mL; in data set [4] it was > 250 µg/mL; in data set [5], > 250 µg/mL; in data set [6] it was > 250 µg/mL; in [7], 125 µg/mL (≈ 735 µM). Moreover, the MIC in data set [8] is 100 µg/mL (≈ 588 µM); in [9], 100 µg/mL (≈ 588 µM); in data set [10], > 250 µg/mL; in data set [11] it was > 250 µg/mL; in [12], > 250 µg/mL.
